Read-outs that look alike come from different tables or passages of the source.
Experiments:
[1] = test system: P. aeruginosa PAO1; assay: Swarming motility assay; assay type: cell-based, Pseudomonas aeruginosa; conditions: PAO1 + DMSO = 100%, PAO1 ΔrhlR + vehicle = 0%; for reduction in swarming activity relative to the controls: compound at 500 μM
Description: We next evaluated the ability of the four sulfonyl HLs 39, 43, 59, and 75 capable of inhibiting RhlR in the P. aeruginosa reporter to reduce swarming motility in a wild-type P. aeruginosa strain (PAO1). Swarming is a rapid, group-coordinated movement of a bacterial population across a semisolid surface, linked to increased expression of virulence factors and increased antibiotic resistance and regulated in P. aeruginosa, at least in part, by the Rhl system. The results of these phenotypic assays are shown in Figure (see Methods for protocol). The swarming ability of PAO1 in the presence of vehicle (DMSO) served as a positive control (set to 100%). As a key negative control, we examined the swarming ability of a PAO1 ΔrhlR mutant in the presence of the vehicle and observed […] relative to the positive control (set to 0%).
5 Swarming motility assay data in P. aeruginosa. […] Area of the colony after 42 h incubation was used to calculate swarming activity (see Methods). Positive control = PAO1 treated with vehicle (DMSO, 100%). Negative control = PAO1 ΔrhlR treated with vehicle (0%). Error bars = standard deviation of the means of triplicate samples. (B) Representative images of P. aeruginosa swarming on agar plates used to generate data in panel A.
The motility assay was based in part on a previously reported procedure. P. aeruginosa PAO1 was grown overnight with 500 or 250 μM compound, or vehicle (DMSO), at 37 °C and normalized to OD600 = 0.4. Cells were washed with sterile water twice and resuspended with 500 (39, 43, and 59) or 250 (75) μM fresh compound or vehicle (DMSO), in M8 minimal medium. Cells (5 μL) were spotted in the center of agar plates (100 mm diameter) generated from M8 minimal medium + 1 mM MgSO4 + 0.2% glucose + 0.5% Casamino acids + 0.5% agar. Plates were covered and the cells were grown for 24–48 h at 37 °C prior to imaging (using an iPhone 14 camera). Photographs were analyzed using ImageJ to calculate the area of the swarm and normalized to the area of (P. aeruginosa PAO1 + vehicle) – (P. aeruginosa PDO111 (ΔrhlR) + vehicle).

[2] = biological target: T1, RhlR (Pseudomonas aeruginosa, UniProt P54292); assay: P. aeruginosa PA14 ΔrhlIΔlasI RhlR GFP reporter antagonism assay; assay type: cell-based; conditions: for Max Inhibition (RhlR): P. aeruginosa PA14 ΔrhlIΔlasI, against 4 μM BHL with 10 μM OdDHL, highest concentrations tested
T1 construct: expressed in transfected cells; host or cells: E. coli JLD271 (K-12 ΔlacX74 sdiA271::Cam) carrying pJN105-R2 (RhlR expression) and pSC11-rhlI (rhlI'-lacZ reporter)
T1 sequence (P54292 whole entry): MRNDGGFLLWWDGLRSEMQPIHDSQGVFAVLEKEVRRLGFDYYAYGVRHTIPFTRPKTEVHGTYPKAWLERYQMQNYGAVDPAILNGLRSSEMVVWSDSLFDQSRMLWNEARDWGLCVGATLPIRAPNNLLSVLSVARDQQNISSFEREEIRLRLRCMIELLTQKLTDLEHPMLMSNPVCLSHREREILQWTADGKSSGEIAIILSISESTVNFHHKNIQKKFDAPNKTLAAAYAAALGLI
Procedure: We were interested in determining whether these new RhlR antagonists identified in an E. coli RhlR reporter maintained their activity in the native organism, P. aeruginosa. […] Antagonism of RhlR was measured in the presence of BHL and OdDHL (the latter signal was needed to induce the production of RhlR via LasR). […] The reasons for this reduction in activity are likely multifold, but we believe that they may stem from the low permeability of P. aeruginosa to small molecules, its lower (native) level of RhlR expression, its abundance of efflux pumps, and/or the cross-interaction of compounds with other targets (LasR, QscR, and potentially others) that then regulate RhlR. […] Nevertheless, these reporter data for sulfonyl HLs 39, 43, 59, and 75 in P. aeruginosa indicate that these compounds are capable of antagonizing RhlR activity in the native host.
RhlR activity in E. coli strain JLD271 (ΔsdiA) was measured via a β-galactosidase reporter (rhI-lacZ) using the Promega Beta-Glo Assay System as previously described. RhlR activity in P. aeruginosa PA14 (ΔrhlIΔlasI) was measured via a GFP reporter (rhlA-gfp). […] See Supporting Information for both reporter protocols.
Supporting Information — Aguirre-Figueroa et al.
P. aeruginosa RhlR reporter assay. RhlR activity in P. aeruginosa PA14 ΔrhlIΔlasI was measured via a GFP reporter. Briefly, a single colony of P. aeruginosa strain PA14 ΔrhlIΔlasI harboring the transcriptional fusion reporter pPROBE-GT rhlA-GFP (Table S1) was grown in LB medium with 40 μg/mL gentamicin overnight (~20 h). The culture was diluted 1:100 in fresh LB medium, without antibiotic, to an OD600 = 0.25 (0.22–0.30) (~1 h). Aliquots (2 μL) of compound DMSO stock solution or serial dilution were added to the inner wells (i.e., non-periphery rows) of a black, clear bottom 96-well plate. To 12 inner wells, DMSO alone (vehicle) was added to serve as controls (negative and positive). For the six negative control wells (no BHL), 198 μL of bacterial culture plus OdDHL (to achieve 10 μM) were added. For the six positive control wells (no test compound), 198 μL of bacterial culture plus OdDHL (10 μM) and BHL (to achieve 4 μM) were added. To all the remaining wells containing test compound, 198 μL of bacterial culture plus OdDHL (10 μM) and BHL (4 μM) were added. Water (200 μL) was added to the outer (periphery) wells to maintain humidity during incubation. Plates were incubated for 4 h at 37 °C. After incubation, the OD600 and GFP production (excitation at 500 nm, emission at 540 nm) were read for each well using a plate reader. To determine levels of RhlR activity, raw GFP production was divided by OD600 to correct for growth variation and then normalized to the negative (0%) and positive (100%) control wells.
Dose-response reporter assay data for compounds in the P. aeruginosa RhlR reporter.
Dose-response curves for RhlR agonism by BHL and for RhlR antagonism by selected compounds against 4 μM BHL using the P. aeruginosa PA14 RhlR reporter are provided below. Compound names are indicated on the x-axis of each plot. All assays performed in triplicate as at least three separate biological replicates. Error bars indicate SD of n = 3 trials. Curve fits generated using GraphPad Prism software (v9.0) using a variable slope sigmoidal curve fit. IC50 values for antagonists […]
Max Inhibition = 47% Max Inhibition = 59%
Max Inhibition = 49% Max Inhibition = 67%
(also on this page, place not known: % Activity % Activity % Activity % Activity % Activity)

Compound | reduction in swarming activity relative to the controls [1] [%] | IC50 [2] [µM] | Max Inhibition (RhlR) [2] [%] | reduction in swarming ([1]; compound at 250 μM) [%] | IC50 ([2]; P. aeruginosa PA14 ΔrhlIΔlasI RhlR reporter) [µM]
O=C1OCC[C@@H]1NS(=O)(=O)c1ccc(Cl)c(Cl)c1 [Compound 43, 3,4-di-Cl BSHL] | 60 | > 1000 | 59 |  | 
CCCCCS(=O)(=O)N[C@H]1CCOC1=O [Compound 75, C5 ASHL] |  |  | 67 | 30 | > 1000
O=C1OCC[C@@H]1NS(=O)(=O)c1cccc(Br)c1 [Compound 39, 3-bromo BSHL] | 60 | > 1000 | 47 |  | 
O=C1OCC[C@@H]1NS(=O)(=O)c1ccc(F)c(F)c1 [Compound 59, 3,4-di-F BSHL] | 60 | > 1000 | 49 |  | 
